Values of other authors, collected in patent US9683982B2, “Method for diagnosis and/or prognosis of cancers by analysis of the mechanical properties of tumor cells” (Universität Leipzig, priority 2010, dated 2017).

Tested on: cells of the cell line MCF7
Conditions: addition of 100 nmol/l TPA for 18 h in culture

CCCCCCCCCCCCCC(=O)O[C@@H]1[C@@H](C)[C@@]2(O)[C@@H](C=C(CO)C[C@]3(O)C(=O)C(C)=C[C@@H]23)[C@@H]2C(C)(C)[C@]12OC(C)=O [TPA, 12-O-tetradecanoylphorbol-13-acetate]
invasive potential and metastasis-forming potential: significant increase
